Test results: US9409866B2, “Pyridine-2-amides useful as CB2 agonists” (Hoffmann-La Roche Inc., priority 2012, dated 2016)
Where two headings read alike, the source gives them in different places.

Key:
human CB1 receptors = human CB1 receptors (Homo sapiens (Human), UniProt P21554); assay: functional cAMP assay, CHO cells expressing human CB1; assay type: cell-based
Procedure: (§1) CHO cells expressing human CB1 or CB2 receptors are seeded 17-24 hours prior to the experiment 50.000 cells per well in a black 96 well plate with flat clear bottom (Corning Costar #3904) in DMEM (Invitrogen No. 31331), 1×HT supplement, with 10% fetal calf serum and incubated at 5% CO2 and 37° C. in a humidified incubator. The growth medium was exchanged with Krebs Ringer Bicarbonate buffer with 1 mM IBMX and incubated at 30° C. for 30 min. Compounds were added to a final assay volume of 100 μl and incubated for 30 min at 30° C. Using the cAMP-Nano-TRF detection kit the assay (Roche Diagnostics) was stopped by the addition of 50 μl lysis reagent (Tris, NaCl, 1.5% Triton X100, 2.5% NP40, 10% NaN3) and 50 μl detection solutions (20 μM mAb Alexa700-cAMP 1:1, and 48 μM Ruthenium-2-AHA-cAMP) and shaken for 2 h at room temperature. The time-resolved energy transfer is measured by a TRF reader (Evotec Technologies GmbH), equipped with a ND:YAG laser as excitation source. The plate is measured twice with the excitation at 355 nm and at the emission with a delay of 100 ns and a gate of 100 ns, total exposure time 10 s at 730 (bandwidth 30 nm) or 645 nm (bandwidth 75 nm), respectively. The FRET signal is calculated as follows: FRET=T730-Alexa730-P(T645-B645) with P=Ru730-B730/Ru645-B645, where T730 is the test well measured at 730 nM, T645 is the test well measured at 645 nm, B730 and B645 are the buffer controls at 730 nm and 645 nm, respectively. cAMP content is determined from the function of a standard curve spanning from 10 μM to 0.13 nM cAMP.
(§2) EC50 values were determined using Activity Base analysis (ID Business Solution, Limited). The EC50 values for a wide range of cannabinoid agonists generated from this assay were in agreement with the values published in the scientific literature.

human CB2 receptors = human CB2 receptors (Homo sapiens (Human), UniProt P34972); assay: functional cAMP assay, CHO cells expressing human CB2; assay type: cell-based
Procedure: as §1, §2

[1] = functional cAMP assay, CHO cells expressing human CB1; read-out: Human CB1 EC50
[2] = read-out: Human CB1 EC50; functional cAMP assay, CHO cells expressing human CB1
[3] = Human CB1 EC50 (uM), functional cAMP assay, CHO cells expressing human CB1

Chain of human CB2 receptors (P34972 whole entry): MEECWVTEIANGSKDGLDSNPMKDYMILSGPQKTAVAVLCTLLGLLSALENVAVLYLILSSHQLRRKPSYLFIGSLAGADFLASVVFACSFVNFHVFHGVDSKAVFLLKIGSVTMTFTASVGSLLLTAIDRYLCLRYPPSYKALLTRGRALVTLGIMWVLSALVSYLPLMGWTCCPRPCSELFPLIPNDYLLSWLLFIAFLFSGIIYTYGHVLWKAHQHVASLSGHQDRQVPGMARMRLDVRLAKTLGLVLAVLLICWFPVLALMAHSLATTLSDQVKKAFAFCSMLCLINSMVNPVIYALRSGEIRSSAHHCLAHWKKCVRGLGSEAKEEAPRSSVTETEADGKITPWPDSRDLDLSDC
Chain of human CB1 receptors (P21554 whole entry): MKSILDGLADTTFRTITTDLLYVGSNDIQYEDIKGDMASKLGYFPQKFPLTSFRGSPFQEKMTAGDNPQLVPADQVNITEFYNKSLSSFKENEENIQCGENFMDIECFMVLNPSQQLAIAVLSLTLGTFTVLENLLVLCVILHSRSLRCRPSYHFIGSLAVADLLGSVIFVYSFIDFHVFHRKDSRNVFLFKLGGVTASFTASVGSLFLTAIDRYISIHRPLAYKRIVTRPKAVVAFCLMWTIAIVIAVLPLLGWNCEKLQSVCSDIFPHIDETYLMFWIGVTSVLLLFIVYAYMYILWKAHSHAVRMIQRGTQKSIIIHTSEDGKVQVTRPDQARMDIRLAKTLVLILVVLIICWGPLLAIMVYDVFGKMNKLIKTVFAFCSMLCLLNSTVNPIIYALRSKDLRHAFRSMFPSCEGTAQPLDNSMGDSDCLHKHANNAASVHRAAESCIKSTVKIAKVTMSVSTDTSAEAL

Row | SMILES | EC50 (human CB1 receptors; [1]) | EC50 (human CB2 receptors; read-out: Human CB2 EC50) | EC50 (human CB1 receptors; [2]) | EC50 (human CB2 receptors; Human CB2 EC50 (uM)) | EC50 (human CB1 receptors; [3])
1 | CC(C)(C)C(NC(=O)c1cc(OCC(F)(F)F)c(C2CC2)cn1)c1nccs1 (stereo not drawn) [Example 50, 5-Cyclopropyl-4-(2,2,2-trifluoro-ethoxy)-pyridine-2-carboxylic acid (2,2-dimethyl-1-thiazol-2-yl-propyl)-amide] | > 10 µM | 0.0058 µM |  |  | 
2 | Cc1nc(C(C)(CS(C)(=O)=O)NC(=O)c2cc(OC(C)CF)c(C3CC3)cn2)no1 (single isomer, unassigned) [Example 296, 5-cyclopropyl-4-(1-fluoropropan-2-yloxy)-N-(2-(5-methyl-1,2,4-oxadiazol-3-yl)-1-(methylsulfonyl)propan-2-yl)picolinamide] |  |  | > 10 µM | 0.0422 µM | 
3 | CC(C)C[C@H](NC(=O)c1cc(-c2cccc(Cl)c2)c(Cl)cn1)C(N)=O [Example 3, 5-Chloro-4-(3-chloro-phenyl)-pyridine-2-carboxylic acid ((S)-1-carbamoyl-3-methyl-butyl)-amide] | > 10 µM | 0.466 µM |  |  | 
4 | C[C@H](Oc1cc(C(=O)NC(C(=O)N2CCC2)C(C)(C)C)ncc1C1CC1)C(F)(F)F (stereo partly drawn) [Example 202, N-[1-(azetidin-1-yl)-3,3-dimethyl-1-oxobutan-2-yl]-5-cyclopropyl-4-[(2S)-1,1,1-trifluoropropan-2-yl]oxypyridine-2-carboxamide] | > 10 µM | 0.0022 µM |  |  | 
5 | O=C(NC1(c2ncco2)COC1)c1cc(OCC2CC2)c(Cl)cn1 [Example 36, 5-Chloro-4-cyclopropylmethoxy-pyridine-2-carboxylic acid (3-oxazol-2-yl-oxetan-3-yl)-amide] | > 10 µM | 0.0517 µM |  |  | 
6 | CC(C)(C)C(NC(=O)c1cc(OCC(F)(F)F)c(C2CC2)cn1)c1noc(N)n1 (stereo not drawn) [Example 192, N-[1-(5-amino-1,2,4-oxadiazol-3-yl)-2,2-dimethylpropyl]-5-cyclopropyl-4-(2,2,2-trifluoroethoxy)pyridine-2-carboxamide] | > 10 µM | 0.0044 µM |  |  | 
7 | CC(CF)Oc1cc(C(=O)NC(C)(CC(N)=O)C2CC2)ncc1C1CC1 (single isomer, unassigned) [Example 303, N-(4-amino-2-cyclopropyl-4-oxobutan-2-yl)-5-cyclopropyl-4-(1-fluoropropan-2-yloxy)picolinamide] | > 10 µM | 0.0485 µM |  |  | 
8 | Cc1nc(C(C)(CC2CC2)NC(=O)c2cc(OCC(F)(F)F)c(C3CCC3)cn2)no1 (single isomer, unassigned) [Example 117, 5-cyclobutyl-N-[1-cyclopropyl-2-(5-methyl-1,2,4-oxadiazol-3-yl)propan-2-yl]-4-(2,2,2-trifluoroethoxy)pyridine-2-carboxamide] |  |  | > 10 µM | 0.0024 µM | 
9 | O=C(NC1(c2nccs2)COC1)c1cc(OCC2CC2)c(C2CC2)cn1 [Example 42, 5-Cyclopropyl-4-cyclopropylmethoxy-pyridine-2-carboxylic acid (3-thiazol-2-yl-oxetan-3-yl)-amide] | > 10 µM | 0.0116 µM |  |  | 
10 | CC(C)(C)C(NC(=O)c1cc(OCC(F)(F)F)c(N2CC(F)(F)C2)cn1)C(N)=O (single isomer, unassigned) [Example 262, N-[1-amino-3,3-dimethyl-1-oxobutan-2-yl]-5-(3,3-difluoroazetidin-1-yl)-4-(2,2,2-trifluoroethoxy)pyridine-2-carboxamide] |  |  |  | 0.261 µM | > 10 µM
11 | C[C@H](Oc1cc(C(=O)NC(C(=O)N2CCC23COC3)C(C)(C)C)ncc1C1CC1)C(F)(F)F (stereo partly drawn) [Example 204, 5-cyclopropyl-N-[3,3-dimethyl-1-(6-oxa-1-azaspiro[3.3]heptan-1-yl)-1-oxobutan-2-yl]-4-[(2S)-1,1,1-trifluoropropan-2-yl]oxypyridine-2-carboxamide] | > 10 µM | 0.0646 µM |  |  | 
12 | Cc1nc(C(C)(NC(=O)c2cc(OCC(F)(F)F)c(C3CC3)cn2)C(=O)N(C)C)no1 (stereo not drawn) [Example 181, 5-cyclopropyl-N-[1-(dimethylamino)-2-(5-methyl-1,2,4-oxadiazol-3-yl)-1-oxopropan-2-yl]-4-(2,2,2-trifluoroethoxy)pyridine-2-carboxamide] | > 10 µM | 0.002 µM |  |  | 
13 | CC(CC(N)=O)(NC(=O)c1cc(OCCF)c(C2CC2)cn1)C1CC1 (single isomer, unassigned) [Example 271, N-[4-amino-2-cyclopropyl-4-oxobutan-2-yl]-5-cyclopropyl-4-(2-fluoroethoxy)pyridine-2-carboxamide] |  |  | > 10 µM | 0.0015 µM | 
14 | CC(C)(C)C(NC(=O)c1cc(OCC(F)(F)F)c(C2CC2)cn1)c1noc(N)n1 (single isomer, unassigned) [Example 227, N-[1-(5-amino-1,2,4-oxadiazol-3-yl)-2,2-dimethylpropyl]-5-cyclopropyl-4-(2,2,2-trifluoroethoxy)pyridine-2-carboxamide] |  |  | > 10 µM | 0.015 µM | 
15 | Cc1nnc(C(NC(=O)c2cc(OCC(F)(F)F)c(C3CC3)cn2)C(C)(C)C)o1 (single isomer, unassigned) [Example 178, 5-cyclopropyl-N-[2,2-dimethyl-1-(5-methyl-1,3,4-oxadiazol-2-yl)propyl]-4-(2,2,2-trifluoroethoxy)pyridine-2-carboxamide] |  |  |  | 0.0105 µM | > 10 µM
16 | Cc1nc(C(C)(NC(=O)c2cc(OCC(F)(F)F)c(C3(F)CCC3)cn2)C2CC2)no1 (single isomer, unassigned) [Example 307, N-(1-cyclopropyl-1-(5-methyl-1,2,4-oxadiazol-3-yl)ethyl)-5-(1-fluorocyclobutyl)-4-(2,2,2-trifluoroethoxy)picolinamide] |  |  |  | 0.0034 µM | 0.032 µM
17 | Cc1nc(C(C)(CC2CC2)NC(=O)c2cc(OC(C)CF)c(C3CC3)cn2)no1 (single isomer, unassigned) [Example 289, 5-cyclopropyl-N-(1-cyclopropyl-2-(5-methyl-1,2,4-oxadiazol-3-yl)propan-2-yl)-4-(1-fluoropropan-2-yloxy)picolinamide] |  | 0.001 µM | > 10 µM |  | 
18 | Cc1nnc(C(C)(CC2CC2)NC(=O)c2cc(OCC(F)(F)F)c(C3CC3)cn2)o1 (single isomer, unassigned) [Example 184, 5-cyclopropyl-N-[1-cyclopropyl-2-(5-methyl-1,3,4-oxadiazol-2-yl)propan-2-yl]-4-(2,2,2-trifluoroethoxy)pyridine-2-carboxamide] |  |  |  | 0.0856 µM | > 10 µM
19 | CC(C)C[C@H](NC(=O)c1cc(OCC(F)(F)F)c(C2CC2)cn1)C(N)=O [Example 52, 5-Cyclopropyl-4-(2,2,2-trifluoro-ethoxy)-pyridine-2-carboxylic acid ((S)-1-carbamoyl-3-methyl-butyl)-amide] | > 10 µM | 0.0778 µM |  |  | 
20 | Cc1nc(C(C)(CN2CC(F)(F)C2)NC(=O)c2cc(OCC(F)(F)F)c(C3CC3)cn2)no1 (stereo not drawn) [Example 128, 5-cyclopropyl-N-[1-(3,3-difluoroazetidin-1-yl)-2-(5-methyl-1,2,4-oxadiazol-3-yl)propan-2-yl]-4-(2,2,2-trifluoroethoxy)pyridine-2-carboxamide] | > 10 µM | 0.0653 µM |  |  | 
21 | CC(CC1CC1)(NC(=O)c1cc(OCC(F)(F)F)c(C2CC2)cn1)c1noc(N)n1 (single isomer, unassigned) [Example 207, N-[2-(5-amino-1,2,4-oxadiazol-3-yl)-1-cyclopropylpropan-2-yl]-5-cyclopropyl-4-(2,2,2-trifluoroethoxy)pyridine-2-carboxamide] |  |  |  | 0.0083 µM | > 10 µM
22 | CNC(=O)C(NC(=O)c1cc(OCC(F)(F)F)c(C2CC2)cn1)C(C)(C)F (stereo not drawn) [Example 237, 5-cyclopropyl-N-[3-fluoro-3-methyl-1-(methylamino)-1-oxobutan-2-yl]-4-(2,2,2-trifluoroethoxy)pyridine-2-carboxamide] | > 10 µM | 0.017 µM |  |  | 
23 | NC(=O)CC1(NC(=O)c2cc(OCC(F)(F)F)c(N3CC(F)(F)C3)cn2)CS(=O)(=O)C1 [Example 264, N-[3-(2-amino-2-oxoethyl)-1,1-dioxothietan-3-yl]-5-(3,3-difluoroazetidin-1-yl)-4-(2,2,2-trifluoroethoxy)pyridine-2-carboxamide] | > 10 µM | 0.178 µM |  |  | 
24 | O=C(N[C@@H](c1cccnc1)C(F)(F)F)c1cc(Cc2ccc(F)cc2)c(Cl)cn1 [Example 41, 5-Chloro-4-(4-fluoro-benzyl)-pyridine-2-carboxylic acid ((S)-2,2,2-trifluoro-1-pyridin-3-yl-ethyl)-amide] | 0.145 µM | 0.0033 µM |  |  | 
